In the NIST ThermoML archive (doi:10.1021/je049585t):
Numbers after ± are expanded uncertainties.

What was measured:
[1] = Crystal
[2] = Molar enthalpy of transition or fusion; details: Crystal

Normal melting temperature [1]: 62.39 ± 0.83 °C
Molar enthalpy of transition or fusion [2]: 4.223 ± 0.0239 kcal/mol
SMILES: CC1=CCC2C(=O)OC(=O)C2C1 (configuration not stated) [4-methyl-cyclohex-4-ene-1, 2-dicarboxylic acid anhydride]
